Experimental data reported in patent US20250018030A1, “PHARMACEUTICAL COMPOSITION FOR PROMOTING CANCER IMMUNOTHERAPY AND METHOD FOR PROMOTING CANCER IMMUNOTHERAPY” (China Medical University, priority 2023, published 2025).

How the values were obtained:
PBMC of PDAC patients = assay: Ex vivo genipin treatment of PBMC of PDAC patients, flow cytometry; type: cell-based, human
Description: (§1) Monoclonal antibodies were purchased from BD Biosciences or eBioscience. For intracellular cytokine staining (ICS), cells were first restimulated by PMA/ionomycin for 5 hours in the presence of GolgiStop (BD Biosciences), followed by surface epitope staining markers before being fixed/permeabilized (BD Cytofix/Cytoperm™) and stained with antibodies targeting intracellular antigens. Cells were finally fixed with 1.5% formaldehyde for 10 minutes at room temperature and analyzed on a FACSVerse flow cytometer (BD Bioscience). Data were analyzed using FlowJo software (Tree Star Inc.).
PDAC human subject study was approved by the Research Ethics Committee of China Medical University & Hospital (CMUH109-REC2-148). 10 ml of fresh blood and 0.1-0.5 mm^3 of tumor mass were collected on the same day from patients who underwent surgical resection. Monocytes were isolated from the patients' peripheral blood mononuclear cell (PBMC) or tumor mass. Cells were resuspended in RPMI medium containing 10% FBS and seeded at a density of 2×10^5/well in a 12-well plate. Cells were treated with genipin (12.5 μM, 25 μM) and incubated overnight before staining for the flow cytometry analysis.

Pan18 cells = assay: Tumorigenicity assay, Pan18 subcutaneous implantation (PDAC-bearing mice); type: in vivo
Description: as §1
For Pan18-subcutaneous implantation, 5×10^5 Pan18 cells were administered to wild-type (WT) or IL-17^−/− mice. Genipin (5 mg/kg, 10 mg/kg, or 30 mg/kg, i.p., every two days) was administered to Pan18-bearing mice for 3 weeks. For 3036-subcutanous implantation, 2×10^5 3036 cells were administered to WT mice. Genipin (10 mg/kg, i.p., every two days) and recombinant anti-IL-17 receptor antibody (αIL-17RA) (1 mg/kg, i.v., once a week) were administered to 3036-bearing mice for 3 weeks. Tumor volumes were evaluated every 2 days. For the orthotopic tumor modelling, mice pancreases were injected with 2×10^5 Pan18 cells and monitored for tumor growth weekly using IVIS kinetics imaging system (Caliper Life-Sciences). Genipin (10 mg/kg, i.p., every two days) or αIL-17RA (1 mg/kg, i.v., once a week) was administered 1 week after tumor implantation. Mice were sacrificed 35 days after tumor induction and tumors weighed. For spontaneous pancreatic cancer model, Cre-dependent conditional knockin mutations of KrasG12D Kras^+/LSLG12D mice (B6; 129-Kras2) were obtained from the Mouse Models of Human Cancer Consortium. Elas-CreERT; Kras^+/LSLG12D mice was generated by breeding Kras^+/LSLG12D mice with Elas-CreER mice obtained from the Level Transgenic Center. To induce the expression of Kras^+/LSLG12D in acinar cells, 5-week-old Elas-CreERT; Kras^+/LSLG12D male mice were injected with 100 μl of tamoxifen (20 mg/ml, i.p., three times per week) for 1 week. To induce chronic inflammation and tumors, 100 μl of cerulein (50 μg/ml, i.p., six times per week) (BACHEM) was given to the mice for 3 weeks. Then, the mice were injected with genipin (10 mg/kg, i.p., every two days) and αIL-17RA (1 mg/kg, i.v., once a week) until the end of the experiment, and overall survival was monitored. For genetically CD4/CD8-specific UCP2 deletion tumor modelling, we generated CD4Cre×UCP2^f/f mice by crossing loxP-UCP2-loxP mice with CD4Cre mice. CD4Cre×UCP2^f/f, WT, and loxP control mice underwent subcutaneous implantation of 2×10^5 Pan18 cells, followed by treatment with αIL-17RA (1 mg/kg, i.v., once a week) for 3 weeks. For melanoma modelling, IL-17/-and WT mice underwent subcutaneous implantation of 5×10^5 B16F10 cells, followed by treatment with genipin (10 mg/kg, i.p., every two days) for 3 weeks. For CD8 depletion tumor modelling, IL-17^−/− mice underwent subcutaneous implantation of 2×10^5 Pan18 cells, followed by treatment with genipin (10 mg/kg, i.p., every two days) and CD8 neutralizing antibody (5 mg/kg, i.v., once a week) for 3 weeks. Tumor volumes were evaluated every 3 days.
Serum levels of IFN-γ, IL-17, TNF-α, IL-12, IL-6, and TGF-β were measured using commercial enzyme-linked immunosorbent assay (ELISA) kits (BD Biosciences; R&D systems; BioLegend) according to the manufacturer's protocol.
Total protein concentration of the tumor lysates was quantified by a Bradford assay. Tumoral chemokine profiles were determined by analyzing 250 μg protein from the tumor lysates using a Proteome Profiler™ Mouse Chemokine Array Kit (ARY020, R&D Systems) according to the manufacturer's instructions. […]

Tc1 cells = assay: RNA-seq gene expression analysis of genipin-treated Tc1 cells; type: cell-based, Mouse
Description: For RNA-seq analysis, the differential gene expression analysis was conducted by RNA-seq quantification following the procedure of Illumina and was performed by Genomics (Taiwan). Low-quality bases and sequencing adapters in the raw data generated from the Illumina sequencer were removed, and the final library quality was assessed on the Agilent Bioanalyzer 2100 system. The gene expression profiles in the genipin-treated and control Tc1 cells were analyzed and compared. The differentially expressed genes were calculated by EBSeq, and functional analysis, such as (gene ontology) GO analysis, was performed using cluster Profiler. For real-time PCR, total RNA was extracted using the RNeasy Micro Kit (Qiagen), and cDNA was synthesized with the PrimeScript™ RT reagent kit (TakaRa). Real-time PCR amplification of IFN-γ was performed in triplicate using TaqMan Gene Expression Assay (Mm01168134_m1) in a Step One Plus system (Applied Biosystems). 18S primers were used as endogenous controls, and the relative gene expression was calculated using the 2^ΔΔCt method.

[1] = IL-17−/− mice, genipin 5 or 10 mg/kg, dose-dependent, FIG. 5C
[2] = IL-17−/− mice, genipin, data not shown
[3] = WT mice, escalating doses of genipin, FIG. 3S
[4] = genipin-treated Tc1 cells, FIG. 2D

COC(=O)C1=CO[C@@H](O)[C@@H]2C(CO)=CC[C@H]12 [genipin]
Tc1 cells (IFN-γ-producing CD8+ T cells) (PBMC of PDAC patients; genipin 12.5, 25 μM overnight, FIG. 8A-8B): increased Tc1 cells
Th1 cells population (IFN-γ-producing CD4+ T cells) (PBMC of PDAC patients; genipin overnight, FIG. 8E): no significant changes
Th17 cells (IL-17-producing CD4+ T cells) (PBMC of PDAC patients; genipin overnight, FIG. 8F): did not increase
Tumor growth (tumor volume, tumor weight) (Pan18 cells; IL-17−/− mice, genipin 5 or 10 mg/kg i.p. every two days, 3 weeks, FIG. 5A-5B): synergistic effect to inhibit tumor growth
Serum IFN-γ (Pan18 cells; [1]): increased
Serum IL-12 (Pan18 cells; [1]): increased
Serum TNF-α (Pan18 cells; [1]): increased
Numbers of Tc1 cells (Pan18 cells; IL-17−/− mice, genipin, FIG. 5D): increased numbers of Tc1 cells
Numbers of MDSC (Pan18 cells; IL-17−/− mice, genipin, FIG. 5G): decreased numbers of MDSC
IL-17-ablation driven change in CCL2 level (Pan18 cells; [2]): had no effects
IL-17-ablation driven change in CXCL10 level (Pan18 cells; [2]): had no effects
Absolute numbers of Tc1 cells (Pan18 cells; WT mice, escalating doses of genipin i.p. every two days, 3 weeks, FIG. 3A-3C): increases in the absolute numbers
Serum IFN-γ (Pan18 cells; [3]): increased
Serum IL-6 (Pan18 cells; [3]): increased
Serum IL-12 (Pan18 cells; [3]): increased
Serum TNF-α (Pan18 cells; [3]): increased
Serum IL-17 (Pan18 cells; WT mice, escalating doses of genipin, end of experiment, FIG. 3S): increased
Tumorigenesis (tumor volume, tumor weight) (Pan18 cells; WT mice, genipin alone, FIG. 3T-3U): did not suppress tumorigenesis
Absolute numbers of Th1 cells (Pan18 cells; WT mice, genipin i.p. every two days, 3 weeks, FIG. 3D-3F): increases in the absolute numbers
Numbers of Tc17 cells (Pan18 cells; WT mice, genipin i.p. every two days, 3 weeks, FIG. 3G-3I): increased
Numbers of Th17 cells (Pan18 cells; WT mice, genipin i.p. every two days, 3 weeks, FIG. 3J-3L): increased
Numbers of Treg cells in the lymph nodes and spleens (Pan18 cells; WT mice, genipin i.p., FIG. 3M-3O): decreased
Numbers of MDSC in the lymph nodes and spleens (Pan18 cells; WT mice, genipin i.p., FIG. 3P-3R): decreased
Tumor infiltrating MDSC (Pan18 cells; WT mice, genipin i.p., tumor): no changes
Tumor infiltrating Tc1 cells (Pan18 cells; WT mice, genipin i.p., tumor): no changes
Tumor infiltrating Th1 cells (Pan18 cells; WT mice, genipin i.p., tumor): no changes
Expression of genes that control IFN-γ signaling, leukocyte activation and bioenergetic metabolism (GOBP enrichment) (Tc1 cells; genipin 12.5 μM, FIG. 2C): correlated positively
Expression of genes related to T cell activation and migration (Tbx21, Ccl5, Eomes, Il12rb2, Ctla2a, Ctla2b) (Tc1 cells; [4]): augmented the expression
Expression of glycolytic pathway genes (Hk2, Gck, Pfkl, Aldoc, Pgam1, Eno2, Ldha) (Tc1 cells; [4]): increased expression
